{"source": "ChEMBL document CHEMBL1201862", "about": "“PubChem BioAssay data set” (2004)", "key": {"[1]": {"experiment": "cells", "assay_type": "functional, cell-based", "conditions": "HEK-CNG"}, "[2]": {"molecular_target": "T1, Galanin receptor type 3 (Homo sapiens, UniProt O60755)", "T1 sequence (O60755 whole entry)": "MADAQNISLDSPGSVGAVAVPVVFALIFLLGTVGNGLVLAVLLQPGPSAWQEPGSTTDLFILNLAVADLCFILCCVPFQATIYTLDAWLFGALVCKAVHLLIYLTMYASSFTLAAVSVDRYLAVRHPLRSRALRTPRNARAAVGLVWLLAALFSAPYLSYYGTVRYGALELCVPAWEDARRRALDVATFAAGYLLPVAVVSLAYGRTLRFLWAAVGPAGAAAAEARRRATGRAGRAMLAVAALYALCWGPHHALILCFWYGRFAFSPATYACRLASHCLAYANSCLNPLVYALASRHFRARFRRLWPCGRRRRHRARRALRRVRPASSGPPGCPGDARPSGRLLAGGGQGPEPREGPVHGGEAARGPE", "experiment": "Fluorescence-based cell-based primary high throughput dose response assay to identify antagonists of the Galanin Receptor 3 (GalR3).", "assay_type": "functional"}, "[3]": {"molecular_target": "T2, COUP transcription factor 2 (Homo sapiens, UniProt P24468)", "T2 sequence (P24468 whole entry)": "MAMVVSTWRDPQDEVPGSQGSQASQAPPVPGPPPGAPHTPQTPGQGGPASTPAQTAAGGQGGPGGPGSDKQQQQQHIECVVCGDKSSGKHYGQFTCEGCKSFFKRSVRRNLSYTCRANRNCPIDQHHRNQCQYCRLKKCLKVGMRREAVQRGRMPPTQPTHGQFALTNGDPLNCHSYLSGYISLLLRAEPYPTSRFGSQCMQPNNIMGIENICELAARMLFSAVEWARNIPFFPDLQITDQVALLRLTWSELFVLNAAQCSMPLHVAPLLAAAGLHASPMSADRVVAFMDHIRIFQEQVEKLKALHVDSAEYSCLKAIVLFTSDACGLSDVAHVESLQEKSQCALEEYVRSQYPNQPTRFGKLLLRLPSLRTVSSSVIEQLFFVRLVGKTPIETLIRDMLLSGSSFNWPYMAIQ", "experiment": "Luminescence-based cell-based high throughput dose response assay to identify inhibitors of COUP-TFII (NR2F2).", "assay_type": "functional"}, "[4]": {"experiment": "reduced cellular PGC1a acetyl-lysine signal – cell-based, cherry-picked samples, dose response (AID 720514);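 also: potency may reflect raised or lowered acetylation signal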", "assay_type": "functional"}, "[5]": {"experiment": "Luminescence Cell-Based Dose Retest to Confirm Inhibitors of Cancer Stem Cells. [Related pubchem assays (depositor defined):AID2717, AID2721]", "assay_type": "functional", "conditions": "Homo sapiens"}, "[6]": {"experiment": "OVCAR8 cell viability loss – plate reader, dry powder samples, PAX8 project, dose response (AID 743197)", "assay_type": "functional, cell-based", "conditions": "OVCAR-8"}, "[7]": {"molecular_target": "Paired box protein Pax-8 (Homo sapiens, UniProt Q06710)", "sequence (Q06710 whole entry)": "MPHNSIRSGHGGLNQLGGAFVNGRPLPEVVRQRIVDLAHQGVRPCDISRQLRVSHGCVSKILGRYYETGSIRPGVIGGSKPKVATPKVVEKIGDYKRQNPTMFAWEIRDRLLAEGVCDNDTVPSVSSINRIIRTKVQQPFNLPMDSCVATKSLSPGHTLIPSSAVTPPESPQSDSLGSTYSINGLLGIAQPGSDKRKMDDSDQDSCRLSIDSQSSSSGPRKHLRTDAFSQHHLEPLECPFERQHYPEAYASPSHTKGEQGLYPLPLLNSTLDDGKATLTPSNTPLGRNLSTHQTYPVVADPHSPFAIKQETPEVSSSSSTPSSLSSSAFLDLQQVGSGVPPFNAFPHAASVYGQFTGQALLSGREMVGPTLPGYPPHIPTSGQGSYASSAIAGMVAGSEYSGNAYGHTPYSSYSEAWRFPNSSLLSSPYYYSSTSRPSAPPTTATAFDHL", "experiment": "PAX8 transcriptional activity inhibition in RMG-I – RMG-I cells, luciferase, cherry-pick, dose response (AID 687027);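 also: luciferase reporter driven by Pax8 target thyroperoxidase promoter measured by SteadyGlo luminescence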", "assay_type": "functional, cell-based"}, "[8]": {"experiment": "OVCAR-3 cell viability loss – plate reader, dry powder samples, PAX8 inhibitor project, dose response (AID 743044)", "assay_type": "functional, cell-based"}, "[9]": {"experiment": "Dd2 malaria parasite growth inhibition potency – SYBR Green, dry powder samples, dose response (AID 1159566);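 also: potency for growth inhibition with lower SYBR green DNA signal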", "assay_type": "functional, cell-based"}, "[10]": {"experiment": "toxicity to human HepG2 hepatoma cells – cell-based, plate reader, dry powder samples, cytotoxicity control, dose response (AID 1159569);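 also: inhibitor potency with signal falling toward the positive control level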", "assay_type": "functional"}, "[11]": {"experiment": "P. falciparum Dd2 growth inhibitors, dose response, SYBR Green, cherry-picked samples (AID 1159567)", "assay_type": "functional, cell-based"}, "[12]": {"experiment": "growth inhibition of PfATP4-mutant resistant parasites – NITD609-resistant line, SYBR Green, dry powder, dose response (AID 1159571);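 also: parasites synchronized at ring stage by sorbitol before testing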", "assay_type": "functional, cell-based"}, "[13]": {"experiment": "growth inhibition of yeast DHODH-expressing 3D7 parasites – SYBR Green, dry powder samples, dose response (AID 1159570);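 also: parasite growth measured after 72 hours of compound exposure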", "assay_type": "functional, cell-based"}, "[14]": {"molecular_target": "T3, Coagulation factor XII (Homo sapiens, UniProt P00748)", "T3 sequence (P00748 whole entry)": "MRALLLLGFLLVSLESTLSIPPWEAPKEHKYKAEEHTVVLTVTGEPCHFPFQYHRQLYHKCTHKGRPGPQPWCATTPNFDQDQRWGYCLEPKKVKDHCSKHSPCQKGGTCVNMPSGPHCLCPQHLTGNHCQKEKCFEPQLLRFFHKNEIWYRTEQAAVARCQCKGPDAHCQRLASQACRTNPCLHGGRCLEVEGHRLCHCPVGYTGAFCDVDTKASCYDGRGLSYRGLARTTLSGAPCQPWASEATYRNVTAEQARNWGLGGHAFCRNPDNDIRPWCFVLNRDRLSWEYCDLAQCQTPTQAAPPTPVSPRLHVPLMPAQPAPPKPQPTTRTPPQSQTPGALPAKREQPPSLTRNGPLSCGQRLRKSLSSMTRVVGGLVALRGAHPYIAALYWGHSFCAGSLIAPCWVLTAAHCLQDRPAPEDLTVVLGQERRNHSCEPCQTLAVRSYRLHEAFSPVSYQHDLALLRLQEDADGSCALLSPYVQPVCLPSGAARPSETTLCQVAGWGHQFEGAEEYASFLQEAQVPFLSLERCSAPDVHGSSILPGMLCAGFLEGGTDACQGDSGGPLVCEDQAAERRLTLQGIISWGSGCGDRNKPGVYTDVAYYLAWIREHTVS", "assay_type": "functional"}, "[15]": {"molecular_target": "Prothrombin (Homo sapiens, UniProt P00734)", "experiment": "Thrombin 1536 HTS Dose Response Confirmation. [Related pubchem assays: 1046 (Thrombin 1536 HTS; hits were confirmed in this assay)]", "assay_type": "functional"}, "[16]": {"system": "INS1", "experiment": "INS-1E survival protection against cytokine death – cell-based, luminescence, retest, dose response (AID 449756);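 also: cell death triggered by IL-1 beta plus TNF-alpha plus IFN-gamma mixture; protective hits raise ATP signal compared with cytokine alone wells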", "assay_type": "functional", "conditions": "Rattus norvegicus"}, "[17]": {"molecular_target": "Cytochrome P450 3A4 (Homo sapiens, UniProt P08684)", "sequence (P08684 whole entry)": "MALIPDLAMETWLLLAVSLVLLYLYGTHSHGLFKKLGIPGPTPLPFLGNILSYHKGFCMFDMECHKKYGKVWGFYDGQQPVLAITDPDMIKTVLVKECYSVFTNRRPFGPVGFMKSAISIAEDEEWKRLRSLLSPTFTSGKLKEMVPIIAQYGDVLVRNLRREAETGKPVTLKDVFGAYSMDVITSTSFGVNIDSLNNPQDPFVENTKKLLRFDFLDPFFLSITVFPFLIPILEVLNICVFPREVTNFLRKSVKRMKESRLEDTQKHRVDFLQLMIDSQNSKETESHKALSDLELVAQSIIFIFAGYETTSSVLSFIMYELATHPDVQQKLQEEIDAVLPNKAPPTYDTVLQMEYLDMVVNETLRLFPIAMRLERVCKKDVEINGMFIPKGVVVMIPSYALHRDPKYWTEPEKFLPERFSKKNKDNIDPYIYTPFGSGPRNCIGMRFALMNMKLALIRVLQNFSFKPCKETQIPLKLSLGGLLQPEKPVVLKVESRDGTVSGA"}, "[18]": {"molecular_target": "T4, fMet-Leu-Phe receptor (Homo sapiens, UniProt P21462)", "T4 sequence (P21462 whole entry)": "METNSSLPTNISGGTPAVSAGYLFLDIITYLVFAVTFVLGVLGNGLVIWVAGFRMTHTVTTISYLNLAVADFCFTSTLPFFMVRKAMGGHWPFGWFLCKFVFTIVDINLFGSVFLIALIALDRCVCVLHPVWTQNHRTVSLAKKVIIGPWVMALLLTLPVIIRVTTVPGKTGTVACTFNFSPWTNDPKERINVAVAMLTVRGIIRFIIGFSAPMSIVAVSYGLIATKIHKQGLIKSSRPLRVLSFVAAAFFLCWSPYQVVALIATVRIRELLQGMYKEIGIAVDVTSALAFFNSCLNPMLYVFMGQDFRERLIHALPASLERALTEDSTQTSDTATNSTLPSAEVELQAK", "experiment": "formyl peptide receptor binders – dose response (AID 519)", "assay_type": "functional"}, "[19]": {"experiment": "viability loss in Vero cells – cytotoxicity control for Vif-APOBEC3G degradation inhibitor project, dose response (AID 1117358)", "assay_type": "functional", "conditions": "Vero"}, "[20]": {"molecular_target": "Large T antigen (Simian virus 40, UniProt P03070)", "sequence (P03070 whole entry)": "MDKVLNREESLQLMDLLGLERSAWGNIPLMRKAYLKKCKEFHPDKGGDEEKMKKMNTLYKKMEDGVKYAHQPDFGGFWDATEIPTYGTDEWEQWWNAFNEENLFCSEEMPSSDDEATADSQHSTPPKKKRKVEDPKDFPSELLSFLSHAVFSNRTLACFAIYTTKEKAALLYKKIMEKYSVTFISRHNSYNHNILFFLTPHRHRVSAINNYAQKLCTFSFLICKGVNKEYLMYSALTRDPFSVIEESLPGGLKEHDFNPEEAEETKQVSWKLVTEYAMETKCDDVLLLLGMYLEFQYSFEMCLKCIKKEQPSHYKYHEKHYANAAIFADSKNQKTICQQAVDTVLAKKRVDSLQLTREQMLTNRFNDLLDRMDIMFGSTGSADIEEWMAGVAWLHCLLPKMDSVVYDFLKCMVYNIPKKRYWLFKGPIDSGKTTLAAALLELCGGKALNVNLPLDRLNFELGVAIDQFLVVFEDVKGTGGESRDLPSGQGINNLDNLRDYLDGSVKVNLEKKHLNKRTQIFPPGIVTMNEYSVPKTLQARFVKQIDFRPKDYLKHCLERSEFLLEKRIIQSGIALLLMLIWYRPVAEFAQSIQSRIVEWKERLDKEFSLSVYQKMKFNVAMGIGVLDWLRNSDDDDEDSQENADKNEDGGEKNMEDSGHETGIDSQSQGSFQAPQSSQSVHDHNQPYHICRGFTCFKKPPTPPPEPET", "assay_type": "functional, Betapolyomavirus macacae"}}, "note": "Active and inactive are the calls of the source.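 For EC50 in this document: target is galanin receptor GalR3 read with a cAMP biosensor in HEK293 cells.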", "data": [{"smiles": "CC(=O)c1ccc(N2CCN(C(S)=Nc3ccc(Oc4ccccc4)cc3)CC2)cc1", "values": [{"measurement": "EC50", "setting": "[1]", "result": "> 29.9 µM (inactive)"}, {"measurement": "IC50", "setting": "[2]", "result": "1.23 µM (active)"}, {"measurement": "IC50", "setting": "[3]", "result": "8.27 µM (active)"}]}, {"smiles": "O=C(Nc1ccc(N2CCN(Cc3ccccc3F)CC2)cc1)c1ccc([N+](=O)[O-])o1", "values": [{"measurement": "AC50", "setting": "[4]", "result": "1.58 µM (active)"}, {"measurement": "AC50", "setting": "[5]", "result": "1.29 µM (active)"}]}, {"smiles": "C[C@@H]1CCCCO[C@@H](CN(C)C(=O)Nc2cccc3ccccc23)[C@H](C)CN([C@H](C)CO)C(=O)c2cc(NS(=O)(=O)c3ccc(Cl)cc3)ccc2O1", "values": [{"measurement": "AC50", "setting": "[6]", "result": "32.4 µM (active)"}, {"measurement": "AC50", "setting": "[7]", "result": "5.29 µM (active)"}, {"measurement": "AC50", "setting": "[8]", "result": "36.6 µM (active)"}]}, {"smiles": "C[C@H](CO)N1C[C@H](C)[C@@H](CN(C)Cc2ccc(Oc3ccccc3)cc2)OCc2ccccc2-c2c(n(C)c3ccccc23)C1=O", "values": [{"measurement": "AC50", "setting": "[9]", "result": "2.58 µM (active)"}, {"measurement": "AC50", "setting": "[10]", "result": "20.3 µM (active)"}, {"measurement": "AC50", "setting": "[11]", "result": "2.58 µM (active)"}, {"measurement": "AC50", "setting": "[7]", "result": "17.1 µM (active)"}, {"measurement": "AC50", "setting": "[12]", "result": "2.82 µM (active)"}, {"measurement": "AC50", "setting": "[13]", "result": "3.28 µM (active)"}]}, {"smiles": "CCc1nnc(NC(=O)CCN(c2ccc(C)cc2)S(=O)(=O)c2ccccc2)s1", "values": [{"measurement": "IC50", "setting": "[14]", "result": "> 50 µM (inactive)"}, {"measurement": "IC50", "setting": "[15]", "result": "> 50 µM (not active)"}]}, {"smiles": "C[C@H](CO)N1C[C@H](C)[C@H](CN(C)Cc2ccc(C(F)(F)F)cc2)Oc2ccc(NS(=O)(=O)c3ccc(F)cc3)cc2CC1=O", "values": [{"measurement": "AC50", "setting": "[6]", "result": "52.5 µM (active)"}, {"measurement": "AC50", "setting": "[7]", "result": "11.4 µM (active)"}]}, {"smiles": "COc1ccc(-c2ccccc2[C@H]2[C@@H](C#N)N(C(=O)NC3CCCC3)[C@H]2CO)cc1", "values": [{"measurement": "AC50", "setting": "[9]", "result": "1.27 µM (active)"}, {"measurement": "AC50", "setting": "[10]", "result": "65.8 µM (active)"}, {"measurement": "AC50", "setting": "[11]", "result": "1.9 µM (active)"}, {"measurement": "AC50", "setting": "[12]", "result": "1.72 µM (active)"}, {"measurement": "AC50", "setting": "[13]", "result": "1.21 µM (active)"}]}, {"smiles": "ClC1(Cl)CC1CSc1nc[nH]n1", "note": "(stereo not drawn)", "values": [{"measurement": "IC50", "setting": "[15]", "result": "> 50 µM (not active)"}]}, {"smiles": "C=CS(=O)(=O)N(Cc1ccccc1Br)[C@H](CO)Cc1ccccc1", "values": [{"measurement": "AC50", "setting": "[4]", "result": "1.05 µM (active)"}]}, {"smiles": "O=C(NCCc1cn2ccccc2n1)c1cc(COc2ccc3ncccc3c2)on1", "values": [{"measurement": "AC50", "setting": "[16]", "result": "6 µM (active)"}, {"measurement": "IC50", "setting": "[3]", "result": "8.53 µM (active)"}]}, {"smiles": "CCC(NC(=O)Nc1cc(OC)c(OC)c(OC)c1)(C(F)(F)F)C(F)(F)F", "values": [{"measurement": "AC50", "setting": "[17]", "result": "15.8 µM (inconclusive)"}, {"measurement": "Ki", "setting": "[18]", "result": "> 66.7 µM (inactive)"}]}, {"smiles": "CCC(=O)N=C(Nc1cccc(OC)c1)Nc1nc(C)cc(C)n1", "values": [{"measurement": "IC50", "setting": "[15]", "result": "0.268 µM (active)"}]}, {"smiles": "CCOc1cc(N2CCOCC2)c(OCC)cc1NS(=O)(=O)c1ccc(Cl)s1", "values": [{"measurement": "CC50", "setting": "[19]", "result": "> 40 µM (active)"}, {"measurement": "IC50", "setting": "[20]", "result": "61.4 µM (active)"}]}, {"smiles": "CSCC[C@@H](Nc1nc(-c2ccccc2)nc2c1oc1ccccc12)C(=O)O", "values": [{"measurement": "CC50", "setting": "[19]", "result": "> 40 µM (active)"}]}]}
